According to patent US10030020B2, “Spirocycle compounds and methods of making and using same” (Abide Therapeutics, Inc., priority 2016, dated 2018):

Experiments:
Assay type in all cases: biochemical
MAGL = MAGL (Mus musculus (Mouse), UniProt O35678); experiment: In vitro competitive activity-based protein profiling (mouse brain membrane fraction or cell lysates), MAGL band; conditions: mouse proteome; for inhibition at 1 µM: read-out: MAGL % Inh 1 μM (mouse); for IC50: competitive ABPP
Method: In Vitro Competitive Activity-Based Protein Profiling.
Proteomes (mouse brain membrane fraction or cell lysates) (50 μL, 1.0 mg/mL total protein concentration) were preincubated with varying concentrations of inhibitors at 37° C. After 30 min, FP—Rh (1.0 μL, 50 μM in DMSO) was added and the mixture was incubated for another 30 min at 37° C. Reactions were quenched with SDS loading buffer (50 μL-4×) and run on SDS-PAGE.

ABHD6 = ABHD6 (Mus musculus (Mouse), UniProt Q8R2Y0); experiment: In vitro competitive activity-based protein profiling (mouse brain membrane fraction or cell lysates), ABHD6 band; conditions: mouse proteome; for inhibition at 1 µM: read-out: ABHD6 % Inh 1 μM (mouse); for IC50: competitive ABPP
Sequence of ABHD6 (Q8R2Y0 whole entry): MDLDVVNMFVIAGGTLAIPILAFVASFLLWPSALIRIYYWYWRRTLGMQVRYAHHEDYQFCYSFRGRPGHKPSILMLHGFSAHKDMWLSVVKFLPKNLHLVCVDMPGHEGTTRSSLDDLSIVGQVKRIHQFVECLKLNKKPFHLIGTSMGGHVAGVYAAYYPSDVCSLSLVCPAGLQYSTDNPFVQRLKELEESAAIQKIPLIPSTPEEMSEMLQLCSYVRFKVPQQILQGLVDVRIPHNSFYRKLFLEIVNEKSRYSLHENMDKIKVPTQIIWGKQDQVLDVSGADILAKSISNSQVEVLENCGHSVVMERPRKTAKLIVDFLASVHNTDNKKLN
Procedure, shortened: (§1)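 Competitive ABPP: proteome 1.0 mg/mL protein + inhibitor, 30 min, 37° C; FP-Rh probe (stock 50 μM in DMSO) added, 30 min, 37° C; SDS quench, SDS-PAGE, fluorescent band intensity read.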

FAAH = FAAH (Mus musculus (Mouse), UniProt O08914); experiment: In vitro competitive activity-based protein profiling (mouse brain membrane fraction or cell lysates), FAAH band; conditions: mouse proteome; for inhibition at 1 µM: read-out: FAAH % Inh 1 μM (mouse); for IC50: competitive ABPP
Sequence of FAAH (O08914 whole entry): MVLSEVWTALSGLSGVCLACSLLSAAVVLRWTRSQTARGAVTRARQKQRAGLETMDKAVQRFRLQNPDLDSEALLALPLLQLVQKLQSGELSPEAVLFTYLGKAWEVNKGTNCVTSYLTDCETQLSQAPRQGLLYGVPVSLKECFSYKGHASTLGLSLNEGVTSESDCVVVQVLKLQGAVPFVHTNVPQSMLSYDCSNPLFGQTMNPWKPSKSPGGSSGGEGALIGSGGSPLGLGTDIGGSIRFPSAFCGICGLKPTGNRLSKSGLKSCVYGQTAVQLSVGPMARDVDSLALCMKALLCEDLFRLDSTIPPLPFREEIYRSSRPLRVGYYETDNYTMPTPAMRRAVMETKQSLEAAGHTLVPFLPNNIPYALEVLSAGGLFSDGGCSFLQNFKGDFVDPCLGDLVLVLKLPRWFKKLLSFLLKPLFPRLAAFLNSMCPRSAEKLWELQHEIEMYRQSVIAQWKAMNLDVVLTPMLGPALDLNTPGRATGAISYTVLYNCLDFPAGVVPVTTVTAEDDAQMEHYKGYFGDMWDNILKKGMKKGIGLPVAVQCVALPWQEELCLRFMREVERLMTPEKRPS
Procedure, shortened: as §1

Sequence of MAGL (O35678 whole entry): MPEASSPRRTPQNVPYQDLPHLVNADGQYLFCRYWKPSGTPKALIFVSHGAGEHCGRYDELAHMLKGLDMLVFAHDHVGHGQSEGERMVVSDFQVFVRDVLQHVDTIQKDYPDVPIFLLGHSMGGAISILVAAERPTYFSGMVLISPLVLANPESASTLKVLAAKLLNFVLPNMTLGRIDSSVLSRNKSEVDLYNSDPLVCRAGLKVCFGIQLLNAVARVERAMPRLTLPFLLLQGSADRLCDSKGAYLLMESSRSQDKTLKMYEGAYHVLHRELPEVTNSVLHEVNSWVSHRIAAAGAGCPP

inhibition at 1 µM (MAGL) | IC50 (MAGL) | inhibition at 1 µM (ABHD6) | IC50 (ABHD6) | inhibition at 1 µM (FAAH) | IC50 (FAAH) | Compound
> 75% | 0.1 to 1 µM | < 25% | > 1 µM | < 25% | > 1 µM | CC(C)N1CCc2cccc(CN3CCCC34CCN(C(=O)OC(C(F)(F)F)C(F)(F)F)CC4)c2C1 [Example 147, 1,1,1,3,3,3-Hexafluoropropan-2-yl 1-((2-isopropyl-1,2,3,4-tetrahydroisoquinolin-8-yl)methyl)-1,8-diazaspiro[4.5]decane-8-carboxylate]
> 75% | < 0.1 µM | < 25% | > 1 µM | < 25% | > 1 µM | O=C(OC(C(F)(F)F)C(F)(F)F)N1CCC2(CCCN2Cc2cccc3c2CN(C2CC2)CC3)CC1 [Example 148, 1,1,1,3,3,3-Hexafluoropropan-2-yl 1-((2-cyclopropyl-1,2,3,4-tetrahydroisoquinolin-8-yl)methyl)-1,8-diazaspiro[4.5]decane-8-carboxylate]
> 75% | 0.1 to 1 µM | 25 to 75% | > 1 µM | < 25% | > 1 µM | CC(C)CN1CCc2cccc(CN3CCCC34CCN(C(=O)OC(C(F)(F)F)C(F)(F)F)CC4)c2C1 [Example 149, 1,1,1,3,3,3-Hexafluoropropan-2-yl 1-((2-(2-methylpropyl)-1,2,3,4-tetrahydroisoquinolin-8-yl)methyl)-1,8-diazaspiro[4.5]decane-8-carboxylate]
> 75% | 0.1 to 1 µM | ≥ 75% | < 0.1 µM | < 25% | > 1 µM | O=C(OC(C(F)(F)F)C(F)(F)F)N1CCC2(CCN(Cc3ccc4c(c3)COC4)C2)CC1 [Example 153, 1,1,1,3,3,3-Hexafluoropropan-2-yl 2-((1,3-dihydroisobenzofuran-5-yl)methyl)-2,8-diazaspiro[4.5]decane-8-carboxylate]
> 75% | < 0.1 µM | ≥ 75% | 0.1 to 1 µM | < 25% | > 1 µM | O=C(OC(C(F)(F)F)C(F)(F)F)N1CCC2(CCN(Cc3ccc(Cl)c(N4CCOCC4)c3)C2)CC1 [Example 154, 1,1,1,3,3,3-Hexafluoropropan-2-yl 2-(4-chloro-3-morpholinobenzyl)-2,8-diazaspiro[4.5]decane-8-carboxylate]
> 75% | < 0.1 µM | ≥ 75% | 0.1 to 1 µM | < 25% | > 1 µM | O=C(OC(C(F)(F)F)C(F)(F)F)N1CCC2(CCN(Cc3ccc(Cl)c(N4CCCC4)c3)C2)CC1 [Example 155, 1,1,1,3,3,3-Hexafluoropropan-2-yl 2-(4-chloro-3-(pyrrolidin-1-yl)benzyl)-2,8-diazaspiro[4.5]decane-8-carboxylate]
> 75% | < 0.1 µM | ≥ 75% | 0.1 to 1 µM | < 25% | > 1 µM | O=C(OC(C(F)(F)F)C(F)(F)F)N1CCC2(CCN(Cc3ccc(C(F)(F)F)c(N4CCOCC4)c3)C2)CC1 [Example 156, 1,1,1,3,3,3-Hexafluoropropan-2-yl 2-(3-morpholino-4-(trifluoromethyl)benzyl)-2,8-diazaspiro[4.5]decane-8-carboxylate]
> 75% | 0.1 to 1 µM | < 25% | > 1 µM | < 25% | > 1 µM | CCN1CCCc2cccc(CN3CCCC34CCN(C(=O)OC(C(F)(F)F)C(F)(F)F)CC4)c21 [Example 158, 1,1,1,3,3,3-Hexafluoropropan-2-yl 1-((1-ethyl-1,2,3,4-tetrahydroquinolin-8-yl)methyl)-1,8-diazaspiro[4.5]decane-8-carboxylate]
> 75% | < 0.1 µM | ≥ 75% | > 1 µM | < 25% | > 1 µM | CCN1CCc2cccc(CN3CCC4(CCN(C(=O)OC(C(F)(F)F)C(F)(F)F)CC4)C3)c2C1 [Example 159, 1,1,1,3,3,3-Hexafluoropropan-2-yl 2-((2-ethyl-1,2,3,4-tetrahydroisoquinolin-8-yl)methyl)-2,8-diazaspiro[4.5]decane-8-carboxylate]
> 75% | < 0.1 µM | ≥ 75% | < 0.1 µM | < 25% | > 1 µM | CC(=O)N1CCc2cccc(CN3CCC4(CCN(C(=O)OC(C(F)(F)F)C(F)(F)F)CC4)C3)c2C1 [Example 160, 1,1,1,3,3,3-Hexafluoropropan-2-yl 2-((2-acetyl-1,2,3,4-tetrahydroisoquinolin-8-yl)methyl)-2,8-diazaspiro[4.5]decane-8-carboxylate]
> 75% | < 0.1 µM | ≥ 75% | < 0.1 µM | < 25% | > 1 µM | CS(=O)(=O)N1CCc2cccc(CN3CCC4(CCN(C(=O)OC(C(F)(F)F)C(F)(F)F)CC4)C3)c2C1 [Example 161, 1,1,1,3,3,3-hexafluoropropan-2-yl 2-((2-(methylsulfonyl)-1,2,3,4-tetrahydroisoquinolin-8-yl)methyl)-2,8-diazaspiro[4.5]decane-8-carboxylate]
> 75% | < 0.1 µM | ≥ 75% | 0.1 to 1 µM | < 25% | > 1 µM | CC(C)N1CCc2cccc(CN3CCC4(CCN(C(=O)OC(C(F)(F)F)C(F)(F)F)CC4)C3)c2C1 [Example 162, 1,1,1,3,3,3-Hexafluoropropan-2-yl 2-((2-isopropyl-1,2,3,4-tetrahydroisoquinolin-8-yl)methyl)-2,8-diazaspiro[4.5]decane-8-carboxylate]
> 75% | < 0.1 µM | 25 to 75% | 0.1 to 1 µM | < 25% | > 1 µM | O=C(OC(C(F)(F)F)C(F)(F)F)N1CCC2(CCN(Cc3cccc4c3CN(C3CC3)CC4)C2)CC1 [Example 163, 1,1,1,3,3,3-Hexafluoropropan-2-yl 2-((2-cyclopropyl-1,2,3,4-tetrahydroisoquinolin-8-yl)methyl)-2,8-diazaspiro[4.5]decane-8-carboxylate]
> 75% | < 0.1 µM | ≥ 75% | 0.1 to 1 µM | < 25% | > 1 µM | CC(C)CN1CCc2cccc(CN3CCC4(CCN(C(=O)OC(C(F)(F)F)C(F)(F)F)CC4)C3)c2C1 [Example 164, 1,1,1,3,3,3-Hexafluoropropan-2-yl 2-((2-isobutyl-1,2,3,4-tetrahydroisoquinolin-8-yl)methyl)-2,8-diazaspiro[4.5]decane-8-carboxylate]
> 75% | < 0.1 µM | 25 to 75% | > 1 µM | < 25% | > 1 µM | CN1CCC(Oc2cc(C(F)(F)F)ccc2CN2CCCC23CCN(C(=O)OC(C(F)(F)F)C(F)(F)F)CC3)CC1 [Example 165, 1,1,1,3,3,3-Hexafluoropropan-2-yl 1-(2-(1-methylpiperidin-4-yloxy)-4-(trifluoromethyl)benzyl)-1,8-diazaspiro[4.5]decane-8-carboxylate]
> 75% | < 0.1 µM | 25 to 75% | > 1 µM | < 25% | > 1 µM | O=C(COc1cc(C(F)(F)F)ccc1CN1CCCC12CCN(C(=O)OC(C(F)(F)F)C(F)(F)F)CC2)N1CCCC1 [Example 167, 1,1,1,3,3,3-Hexafluoropropan-2-yl 1-(2-(2-oxo-2-(pyrrolidin-1-yl)ethoxy)-4-(trifluoromethyl)benzyl)-1,8-diazaspiro[4.5]decane-8-carboxylate]
> 75% | < 0.1 µM | 25 to 75% | > 1 µM | < 25% | > 1 µM | O=C(OC(C(F)(F)F)C(F)(F)F)N1CCC2(CCCN2Cc2ccc(C(F)(F)F)cc2OC2CCOCC2)CC1 [Example 169, 1,1,1,3,3,3-Hexafluoropropan-2-yl 1-(2-(tetrahydro-2H-pyran-4-yloxy)-4-(trifluoromethyl)benzyl)-1,8-diazaspiro[4.5]decane-8-carboxylate]
> 75% | 0.1 to 1 µM | < 25% | > 1 µM | < 25% | > 1 µM | O=C(OC(C(F)(F)F)C(F)(F)F)N1CCC2(CCCN2Cc2ccc(C(F)(F)F)cc2Oc2nc3ccccc3s2)CC1 [Example 171, 1,1,1,3,3,3-Hexafluoropropan-2-yl 1-(2-(benzo[d]thiazol-2-yloxy)-4-(trifluoromethyl)benzyl)-1,8-diazaspiro[4.5]decane-8-carboxylate]
> 75% | < 0.1 µM | < 25% | > 1 µM | < 25% | > 1 µM | O=C(OC(C(F)(F)F)C(F)(F)F)N1CCC2(CCCN2Cc2ccc(C(F)(F)F)cc2OC2CCS(=O)(=O)CC2)CC1 [Example 175, 1,1,1,3,3,3-Hexafluoropropan-2-yl 1-(2-((1,1-dioxidotetrahydro-2H-thiopyran-4-yl)oxy)-4-(trifluoromethyl)benzyl)-1,8-diazaspiro[4.5]decane-8-carboxylate]
